# Experimental data as given in US9068958B1, “Use of surface free energy for differential evaluation of crystal, crystal evaluated on basis of surface free energy as index, and pharmaceutical composition prepared by containing the crystal” (POLA PHARMA INC., priority 2012, dated 2015).
# Columns and labels:
# [1] = Surface free energy of crystal by liquid penetration rate measurement (contact angle, Owens-Wendt-Rabel-Kaelble method); type: physicochemical; conditions: crystal powder; for γS^d, dispersion component of surface free energy / γS^p, polar component of surface free energy: solvents n-hexane, tetrachloromethane, benzene, 1-nitropropane, water; for γS, surface free energy: sum of dispersion and polar component
# Method: The measurement of the surface free energy of the crystal may be performed in accordance with an ordinary method. For example, the contact angle with respect to the crystal is measured by means of the liquid penetration (permeation) rate measurement (machine type of apparatus: Processor Tensiometer K12, manufacturer: KRUSS GmbH) by using several solvents for which the surface free energy, the dispersion component of the surface free energy, and the polar component of the surface free energy are already known, and thus it is possible to perform the calculation therefrom by applying the model of Owens, Wendt, Rabel, and Kaelble. Preferred solvents for measurement in this method can be appropriately exemplified, for example, by n-hexane, […], benzene, nitrobenzene, 1-nitropropane, and water. As for the method as described above, it is possible to make reference, for example, to a method described in Japanese Patent Application Laid-open No. 2010-183064.
# In relation to the surface free energy, the contact angle θ is calculated in accordance with the Washburn's equation from the penetration (permeation) rate of liquid into powder obtained by the liquid penetration (permeation) rate measurement (machine type of apparatus: Processor Tensiometer K12, manufacturer: KRUSS GmbH). The penetration (permeation) rate of the liquid in the chamber into the powder is measured by using a chamber tube shown in FIG. 4. […] Washburn's equation is represented by the following equation 1.
# If this equation is converted into the weight of the solvent permeated into the powder per unit time, the following equation 2 is presented.
# The contact angle θ is determined by measuring the penetration (permeation) rate by using a solvent for which the surface tension (γL), the density (ρ), and the viscosity (η) of the liquid are known. The polar component and the dispersion component of the surface free energy are calculated in accordance with the Owens-Wendt-Rabel-Kaelble method by using θ thus determined. That is, assuming that the surface free energy is composed of the non-polar dispersion component γ^d and the polar component γ^p, the following equations are presented. γS=γS^d+γS^p γL=γLd+γLp γSL=γS+γL−2√{square root over (yS^d·γL^d)}−2√{square root over (γS^p·γL^p)} Equation 3
# If Young's equation, which holds among the surface tension of the liquid, the surface tension of the solid, and the solid-liquid interfacial tension, is substituted with the above, the following equation is obtained.
# The contact angle θ is determined, and plotted by using several types of solvents having known γL, γL^d, γL^p, and thus it is possible to determine γS^p from the slope and γs^d from the intercept. n-Hexane, tetrachloromethane, benzene, 1-nitropropane, and water were used as the known solvents.
# By utilizing the above, the surface free energy, the dispersion component of the surface free energy, the polar component of the surface free energy, and the ratio (%) of the polar component with respect to the surface free energy were calculated for samples (specimens) manufactured by the following methods.
# [2] = Storage testing under severely stressed condition of crystals suspended in water, isomer formation by HPLC; type: physicochemical; conditions: light 6000 1×, 80° C., 6 hours, ratio to charging amount of luliconazole
# Method: The storage testing under severely stressed condition was performed for Crystals 1 to 4. That is, each of the samples was suspended in water (infiltration condition or humidified condition), which was exposed to light at 6000 1× at 80° C. for 6 hours, followed by being collected by filtration and dried. After that, the ratio of the Z isomer of luliconazole with respect to the charging amount of luliconazole was measured and calculated. The measurement was performed by means of HPLC. The HPLC condition was as follows.
# Column: CHIRALCEL OD-RH 4.6×150 mm, column temperature: 35° C., mobile phase: mixture solution of methanol/1.8% aqueous solution of potassium hexafluorophosphate (83:17, v/v), flow rate: 0.56 mL/min., detection: 295 nm.
# As for the SE isomer, the storage testing under severely stressed testing was performed for the crystal in the same manner as the Z isomer. As a result, any difference was not observed in relation to the amount of formation depending on the difference in the crystal. That is, the tendency of the SE isomer was not observed for the crystal itself.
structure (smiles),measurement,setting,value
"N#C/C(=C1/SC[C@@H](c2ccc(Cl)cc2Cl)S1)n1ccnc1 [Crystal 1, Luliconazole]","γS^p/γS, ratio of polar component of surface free energy",[1]; listed as 1,44%
same,"γS^d, dispersion component of surface free energy",[1]; listed as 1,16.1 mJ/m^2
same,"γS^p, polar component of surface free energy",[1]; listed as 1,12.7 mJ/m^2
same,"γS, surface free energy",[1]; listed as 1,28.8 mJ/m^2
same,Amount of formation of Z isomer (%) under condition of suspension in water and exposure to light,[2]; listed as 1,0.11%
"N#C/C(=C1/SC[C@@H](c2ccc(Cl)cc2Cl)S1)n1ccnc1 [Crystal 2, Luliconazole]","γS^p/γS, ratio of polar component of surface free energy",[1]; listed as 2,29%
same,"γS^d, dispersion component of surface free energy",[1]; listed as 2,19.5 mJ/m^2
same,"γS^p, polar component of surface free energy",[1]; listed as 2,7.9 mJ/m^2
same,"γS, surface free energy",[1]; listed as 2,27.4 mJ/m^2
same,Amount of formation of Z isomer (%) under condition of suspension in water and exposure to light,[2]; listed as 2,0.08%
"N#C/C(=C1/SC[C@@H](c2ccc(Cl)cc2Cl)S1)n1ccnc1 [Crystal 3, Luliconazole]","γS^p/γS, ratio of polar component of surface free energy",[1]; listed as 3,31%
same,"γS^d, dispersion component of surface free energy",[1]; listed as 3,18.4 mJ/m^2
same,"γS^p, polar component of surface free energy",[1]; listed as 3,8.2 mJ/m^2
same,"γS, surface free energy",[1]; listed as 3,26.6 mJ/m^2
same,Amount of formation of Z isomer (%) under condition of suspension in water and exposure to light,[2]; listed as 3,0.07%
"N#C/C(=C1/SC[C@@H](c2ccc(Cl)cc2Cl)S1)n1ccnc1 [Crystal 4, Luliconazole]","γS^p/γS, ratio of polar component of surface free energy",[1]; listed as 4,20%
same,"γS^d, dispersion component of surface free energy",[1]; listed as 4,20.3 mJ/m^2
same,"γS^p, polar component of surface free energy",[1]; listed as 4,5.2 mJ/m^2
same,"γS, surface free energy",[1]; listed as 4,25.5 mJ/m^2
same,Amount of formation of Z isomer (%) under condition of suspension in water and exposure to light,[2]; listed as 4,0.07%
